{"source": "patent US20030166721A1", "about": "“Choline derivative for the treatment of alzheimer's disease” (priority 2000, published 2003)", "type_in_all_cases": "in vivo, rat", "key": {"NBM lesioned rats": {"tested_on": "NBM lesioned rats", "assay": "EEG in rats with unilateral AMPA lesion of Meynert nucleus basalis (NBM)", "description": "Male Wistar rats (200-250 g), anaesthetised with chloral hydrate (400 mg/kg), were subjected to unilateral lesion of Meynert nucleus basalis (NBM), by intracerebral infusion of α-amino-3-hydroxy-4-isoxazolepropionic acid (AMPA) (1.3 μg/0.5 μl). The animals were divided into four groups, the first two were subjected to NBM lesion; the third was a sham-operated group, and the last was the control group. Two weeks after the lesion, the animals were implanted under general anesthesia, with cortical electrodes (n=4) onto the fronto-parietal region, so as to make it possible, 24 hours later, to record the EEG activity of freely moving animals. EEG activity was continuously monitored and recorded for 60 min by a computerised EEG Berg-Fourier apparatus. Spontaneous activity of the EEG spectrum total power (0.25-16 Hz), as well as that of preselected frequency bands, was recorded for times of 5 min and quantitized (μV).\nIn order to quantitize AMPA-induced neuronal loss in NBM, coronal serial sections of rat brain were prepared, then stained with toluidine blue to verify the injection site and treated, by immunohistochemical procedure, with 192LR-NGF to quantitize the neuronal loss. Said sections were analysed by a computerized system for image analysis (Axiophoy Zeiss and Vidas Kintron). Statistical analysis of the data from the morphological study was performed by ANOVA followed, if significant, by the post-hoc Tuckey-Kramer test.\nIn lesioned animals (n=16), with about 45% neuronal loss at the NBM level (FIG. 5), EEG synchronization accompanied with significant increase (P<0.01) in total power (0.25-16 Hz), (170.4±25.8) of EEG spectrum (μV), as well as in higher frequency bands (6-9, 9-12 and 12-16 Hz) (FIG. 7; Tab. 4), was observed. EEG activity of half the NBM lesioned animals was further recorded. After recording the baseline EEG activity, this group of animals was intraperitoneally administered with a PC-1 single dose."}, "rats": {"tested_on": "rats", "assay": "Synergistic effect with tacrine: qEEG of neocortical activity in rats", "conditions": "n=7", "description": "Results reported in Table 5 show the synergistic effect of the combination of tacrine with the choline derivatives of the present invention.\nVehicle: 2 ml/Kg; all drugs were administered i.p., PC-1 and PC-2 at corresponding equimolar doses (15 μmol/2 ml/kg^−1); THA (tacrine) (5 mg/kg) was administered 30 min before compounds; atropine (0.1 mg/kg) was injected 15 min before PC-1 and PC-2. The number of animals was 7 per each group. Values represent EEG power (μV/s)."}, "Wistar rats [1]": {"tested_on": "Wistar rats", "assay": "Behavioural and EEG effects in rats at different doses", "description": "Young male Wistar rats (200-260) were used in the experiments, housed in a standard temperature and humidity conditions, with food and water ad libitum.\nThe animals, anaesthetised with chloral hydrate (400 mg/kg) […], were stereotaxically implanted (Kopft Instruments) with cortical electrodes (n=4) onto the fronto-parietal region of the neocortex on both cerebral hemispheres, to record EEG. After surgery all animals were housed 48 h to allow a complete recovery.\n48 Hours after electrode implantation, the animals, placed in a transparent box and freely moving, were connected with an electroencephalograph and the electrocortical activity was continuously monitored and recorded. After a 30 min control time, the compounds under test were intraperitoneally administered and EEG recording was continued for 90-120 min\nEEG was recorded by computerised 24-channels apparatus (Vega 24, Galileo type, ESA-OTE Biomedica, Florence, Italy), while the spectrum activity was quantitatively analysed by a Berg Fourier analyser (ESA-OTE Biomedica, Florence, Italy). The total EEG power (0.25-16 Hz range) was divided into 5 variable frequency bands: δ 0.25-3 Hz, θ 3-6; α1 6-9; α2 9-12 and β12-16 Hz.\nThe EEG patterns and behavioral effects observed in the rat after administration of the choline derivatives and of the vehicle is reported in 5 Tab. 3. Such effects can be ascribed to the changes of EEG spectrum total power. An […] in EEG total power is related with the presence of slow frequency waves (synchronisation), whereas an […] thereof is related with the presence of rapid frequency waves (desynchronisation)."}, "Wistar rats [2]": {"tested_on": "Wistar rats", "assay": "EEG spectral qualitative and quantitative analysis in freely moving rats after i.p. administration", "description": "Young male Wistar rats (200-260) were used in the experiments, housed in a standard temperature and humidity conditions, with food and water ad libitum. […] After surgery all animals were housed 48 h to allow a complete recovery. 48 Hours after electrode implantation, the animals, placed in a transparent box and freely moving, were connected with an electroencephalograph and the electrocortical activity was continuously monitored and recorded. […] Qualitative and quantitative analysis on the electrocortical activity EEG recording was subsequently carried out. The animals were divided in 4 groups, the first group acted as the control, the second received cytidine-5′-diphosphocholine (CDP-choline), the third and fourth received PC-1 and PC-2, respectively (pivaloylcholine iodide and pivaloyleholine trimethylacetate, respectively). The control group received an equal volume of saline solution by the same procedure. […] Statistical analysis was performed by analysis of variance (ANOVA) for multiple measurements followed, if significant, by the post-hoc Tuckey-Kramer test. A comparison between groups was performed to exclude any individual variability."}, "[3]": {"conditions": "NBM unilaterally lesioned rats + PC-1 (5 mg i.p.), hemisphere ipsilateral to lesion"}, "[4]": {"conditions": "rats i.p., PC-1/PC-2 15 μmol/2 ml/kg, THA 5 mg/kg 30 min before, atropine 0.1 mg/kg 15 min before"}, "[5]": {"conditions": "after i.p. administration, % ± SEM"}, "[6]": {"conditions": "i.p. (vol. 0.5 ml), mean ± SEM, 7 tests"}}, "data": [{"smiles": "CC(C)(C)C(=O)OCC[N+](C)(C)C.[I-]", "note": "[PC-1, pivaloylcholine iodide]", "values": [{"measurement": "Effect on EEG spectrum after NBM excitotoxic lesion (FIG. 7)", "setting": "NBM lesioned rats; NBM lesioned rats (AMPA), 5 mg i.p.", "value": "restores both the normal composition of EEG spectrum and the distribution of its frequencies"}, {"measurement": "Duration of the decrease in ECoG spectrum total power", "setting": "NBM lesioned rats; NBM lesioned rats, 5 mg i.p.", "value": "about 15 min"}, {"measurement": "Time to onset of alert response, EEG desynchronization and decrease in ECoG total power", "setting": "NBM lesioned rats; NBM lesioned rats, 5 mg i.p.", "value": "≤ 15", "unit": "min"}, {"measurement": "Change in 6 rhythm (0.25-3 Hz)", "setting": "NBM lesioned rats; NBM lesioned rats, 5 mg i.p., P<0.05", "value": "significant decrease"}, {"measurement": "ECoG spectrum total power, second value of printed pair", "setting": "NBM lesioned rats; NBM lesioned rats, 5 mg i.p., presumably after PC-1", "value": "96±20.3"}, {"measurement": "ECoG spectrum total power, first value of printed pair", "setting": "NBM lesioned rats; NBM lesioned rats, 5 mg i.p., presumably before PC-1", "value": "150±19.3"}, {"measurement": "EEG spectrum band 0.25-3 Hz", "setting": "NBM lesioned rats; [3]", "value": 3.4, "unit": "%"}, {"measurement": "EEG spectrum band 3-6 Hz", "setting": "NBM lesioned rats; [3]", "value": 33.3, "unit": "%"}, {"measurement": "EEG spectrum band 6-9 Hz", "setting": "NBM lesioned rats; [3]", "value": 23.5, "unit": "%"}, {"measurement": "EEG spectrum band 9-12 Hz", "setting": "NBM lesioned rats; [3]", "value": 13.6, "unit": "%"}, {"measurement": "EEG spectrum band 12-16 Hz", "setting": "NBM lesioned rats; [3]", "value": 14.6, "unit": "%"}, {"measurement": "EEG power (qEEG of neocortical activity), 15″", "setting": "rats; [4]", "value": 68, "unit": "μV/s"}, {"measurement": "EEG power (qEEG of neocortical activity), 30″", "setting": "rats; [4]", "value": 120, "unit": "μV/s"}, {"measurement": "EEG power (qEEG of neocortical activity), 45″", "setting": "rats; [4]", "value": 127, "unit": "μV/s"}, {"measurement": "EEG power (qEEG of neocortical activity), 60″", "setting": "rats; [4]", "value": 115, "unit": "μV/s"}, {"measurement": "EEG power (qEEG of neocortical activity), 75″", "setting": "rats; [4]", "value": 129.5, "unit": "μV/s"}, {"measurement": "EEG power (qEEG of neocortical activity), 90″", "setting": "rats; [4]", "value": 117, "unit": "μV/s"}, {"measurement": "EEG power (qEEG of neocortical activity), 105″", "setting": "rats; [4]", "value": 132.5, "unit": "μV/s"}, {"measurement": "EEG power (qEEG of neocortical activity), 120″", "setting": "rats; [4]", "value": 18.5, "unit": "μV/s"}, {"measurement": "EEG power (qEEG of neocortical activity), 135″", "setting": "rats; [4]", "value": 135, "unit": "μV/s"}, {"measurement": "EEG effect with tacrine given 30 min before", "setting": "rats; rats, THA 5 mg/Kg i.p. 30 min before 15 μmol i.p.", "value": "long-lasting EEG desynchronization and significant decrease in EEG spectrum total power"}, {"measurement": "EEG power (qEEG of neocortical activity), Baseline", "setting": "rats; rats, before i.p. treatment", "value": 112.5, "unit": "μV/s"}, {"measurement": "Behaviour", "setting": "Wistar rats [1]; 1 mg", "value": "Alert response"}, {"measurement": "EEG Activity (change of EEG total power)", "setting": "Wistar rats [1]; 1 mg", "value": "Decrease"}, {"measurement": "Behaviour", "setting": "Wistar rats [1]; 5 mg", "value": "Alert response"}, {"measurement": "EEG Activity (change of EEG total power)", "setting": "Wistar rats [1]; 5 mg", "value": "Decrease"}, {"measurement": "Behaviour", "setting": "Wistar rats [1]; 50 mg", "value": "Convulsions and death (50%)"}, {"measurement": "EEG Activity (change of EEG total power)", "setting": "Wistar rats [1]; 50 mg", "value": "Peaks"}, {"measurement": "Change of slow EEG spectrum components (FIG. 3)", "setting": "Wistar rats [2]", "value": "decrease in slow components (delta and theta) of the spectrum"}, {"measurement": "Duration of the decrease in EEG total power", "setting": "Wistar rats [2]; 5 mg i.p.", "value": 15, "unit": "min"}, {"measurement": "Time to onset of EEG desynchronization and significant decrease in EEG total power", "setting": "Wistar rats [2]; 5 mg i.p.", "value": 15, "unit": "min"}, {"measurement": "EEG frequency band 0.25-3 Hz", "setting": "Wistar rats [2]; [5]", "value": "4.3 ± 0.7(*) %"}, {"measurement": "EEG frequency band 3-6 Hz", "setting": "Wistar rats [2]; [5]", "value": "18 ± 0.6(*) %"}, {"measurement": "EEG frequency band 6-9 Hz", "setting": "Wistar rats [2]; [5]", "value": "32.5 ± 1.3", "unit": "%"}, {"measurement": "EEG frequency band 9-12 Hz", "setting": "Wistar rats [2]; [5]", "value": "19.3 ± 0.9", "unit": "%"}, {"measurement": "EEG frequency band 12-16 Hz", "setting": "Wistar rats [2]; [5]", "value": "13 ± 1.0", "unit": "%"}, {"measurement": "Effect of atropine given 15 min before the compound", "setting": "Wistar rats [2]; atropine pretreatment", "value": "antagonize the effects"}, {"measurement": "EEG total power (fronto-parietal cortex), Baseline", "setting": "Wistar rats [2]; before i.p. injection (vol. 0.5 ml), mean ± SEM, 7 tests", "value": "120 ± 2.9"}, {"measurement": "EEG total power (fronto-parietal cortex), 15′", "setting": "Wistar rats [2]; [6]", "value": "82 ± 3.6(*)"}, {"measurement": "EEG total power (fronto-parietal cortex), 30′", "setting": "Wistar rats [2]; [6]", "value": "128 ± 3.2"}, {"measurement": "EEG total power (fronto-parietal cortex), 45′", "setting": "Wistar rats [2]; [6]", "value": "110 ± 2.7"}, {"measurement": "EEG total power (fronto-parietal cortex), 60′", "setting": "Wistar rats [2]; [6]", "value": "120 ± 4.3"}, {"measurement": "EEG total power (fronto-parietal cortex), 75′", "setting": "Wistar rats [2]; [6]", "value": "125 ± 3.5"}, {"measurement": "EEG total power (fronto-parietal cortex), 90′", "setting": "Wistar rats [2]; [6]", "value": "127 ± 4"}]}]}
